# US20150126465A1, “PROCESS FOR PRODUCING DERIVATIVES OF PYROSTEGIA VENUSTA, DERIVATIVES OF PYROSTEGIA VENUSTA, PHARMACEUTICAL COMPOSITIONS AND ITS USES” (priority 2011, published 2015)
# Like-named read-outs stand apart in the source and are kept apart here.
# Tests used:
# Assay type in all cases: cell-based
# [1] = test system: Candida tropicalis USP 1658; assay: MIC by microdilution (CLSI M27-A2)
# Candida krusei ATCC 6258 [2] = assay: MIC/CFM by microdilution (CLSI M27-A2)
# [3] = test system: Candida parapsilosis ATCC 22019; assay: MIC/CFM by microdilution (CLSI M27-A2)
# [4] = test system: Microsporum canis ATCC 32903; assay: MIC by microdilution, filamentous fungi (CLSI M38-A); conditions: Table 13, Microsporum canis ATCC 32903, 7 days, 28° C.
# Procedure: (§1) Pure substances termed P1 and P2 previously dissolved in 20% DMSO, were diluted in RPMI medium, with final concentrations of 96 μg.mL-1. […] Cultures of filamentous fungi described below were inoculated in Agar-Batata Dextrose medium and inoculated for 7 days, at 28° C. Colonies of cultures inoculated for 7 days in an oven at 28° C. were shrouded with 0.85% saline solution, scraped and then transferred to conical tubes. After resting for 5 minutes, the supernatant was transferred to new conical tubes for subsequent quantification in spectrophotometer, at 530 nm, with the transmittance adjustment of 80-82% for A. niger and 70% for other microorganisms. After adjustment, there was a 1:50 dilution in RPM. The determination of Minimum Inhibitory Concentration was performed after 7 days, at 28° C. After the incubation period, aliquots of 96-well plates were transferred to Petri plates with Potato Dextrose Agar, to determine the Minimum Fungicidal Concentration. Plates were inoculated for more 7 days, at 28° C.
# [5] = test system: Phomopsis longicolla (soy isolate); assay: as above; conditions: Table 13, Phomopsis longicolla- soy, 7 days, 28° C.
# Procedure: as §1
# [6] = test system: Trichophyton menthagrophyton ATCC 9533; assay: as above; conditions: Table 13, Trichophyton menthagrophyton ATCC 9533, 7 days, 28° C.
# Procedure: as §1
# [7] = test system: Candida parapsilosis ATCC 22019; assay: Diffusion in Agar, halo of inhibition; parameters: unit not given here; conditions: 20 μL per hole, 48 hours at 37° C., controls 80 μg · mL^−1
# Procedure: (§2) Cultures of yeasts described below were inoculated in Agar-Sabouraud Dextrose medium and inoculated for 24 hours, at 35° C. Cultures of Candida sp. were prepared and standardized in […] saline solution at 0.85%. For inoculum standardization a spectrophotometer equipment was used with wavelength at 530 nm and absorbance adjustment between 0.130 and 0.150, having as white the saline solution free of inoculum or any other contaminant, corresponding to concentrations of 10^6 CFU/mL. In Petri plates (150×15 mm), were distributed RPMI medium with 0.8% Agar. To these plates, it was added 1 mL of the microorganism suspension in the concentration of 10^6 CFU/mL. After inundation, the suspension excess was removed with the aid of a pipette. With the plate surface already dry, hole of approximately 6.0 mm were made, adding to each hole 20 μL of the samples and control. The plates were then incubated for 48 hours at 37° C., when halo of inhibitions were measured.
# [8] = test system: Candida guilhermondii USP; assay: Diffusion in Agar, halo of inhibition; parameters: unit not given here; conditions: Candida guilhemondii USP; 20 μL per hole, 48 hours at 37° C.; controls 80 μg · mL^−1
# Procedure: as §2
# Candida krusei ATCC 6258 [9] = assay: Diffusion in Agar, halo of inhibition; parameters: unit not given here; conditions: 20 μL per hole, 48 hours at 37° C., controls 80 μg · mL^−1
# Procedure: as §2
# [10] = test system: Candida tropicalis USP B3; assay: Diffusion in Agar, halo of inhibition; parameters: unit not given here; conditions: 20 μL per hole, 48 hours at 37° C., controls 80 μg · mL^−1
# Procedure: as §2
# [11] = test system: Candida albicans ATCC 10231; assay: Diffusion in Agar, halo of inhibition; parameters: unit not given here; conditions: 20 μL per hole, 48 hours at 37° C., controls 80 μg · mL^−1
# Procedure: as §2
# [12] = test system: Candida albicans USP 1565; assay: MIC by microdilution (CLSI M27-A2)
# [13] = test system: Trichophyton rubrum ATCC MYA-3108; assay: MIC by microdilution, filamentous fungi (CLSI M38-A); conditions: Table 11, Trichophyton rubrum ATCC MYA-3108
# [14] = test system: Candida parapsilosis USP 1933; assay: MIC/CFM by microdilution (CLSI M27-A2)
# [15] = test system: Candida tropicalis USP B3; assay: MIC by microdilution (CLSI M27-A2)
# Candida krusei USP 2223 = assay: MIC by microdilution (CLSI M27-A2)
# [16] = test system: Candida albicans OF-M3-20; assay: MIC/CFM by microdilution (CLSI M27-A2)
# Procedure: (§3) Pure substances termed P1 and P2 previously dissolved in 20% DMSO, were diluted in RPMI medium, with final concentrations of 96 μg.mL-1. […] The same was also tested individually, diluted in RPMI medium, with initial concentration of 1 μL.mL-1. […] Cultures of Candida sp. were prepared and standardized in […] saline solution at 0.85%. For inoculums standardization, a spectrophotometer equipment was used, with wavelength at 530 nm and absorbance adjustment between 0.130 and 0.150, having as white the saline solution free of inoculum or any other contaminant, corresponding to concentrations of 10^6 CFU/mL. In this condition the inoculum “mother” was diluted 50 times and from this inoculum “child” the dilution was performed 20 times to obtain a standard inoculum in 10^3 cells per well. […] To aid in the growth view, were added to the wells dye 50 μL 2,3,5-triphenyltetrazolium chloride (TTC) at 5 mg.mL “1, being performed the readings after 4 hours of incubation. Prior to the addition of dye, aliquots of 96-well plate were transferred to Petri with Agar-Sabouraud Dextrose to determine the Minimum Fungicidal Concentration. Plates were incubated for 24 hours at 35° C.
# [17] = test system: Candida albicans OF-M7-19; assay: MIC/CFM by microdilution (CLSI M27-A2)
# Procedure: as §3
# Candida albicans USP 1 = assay: MIC/CFM by microdilution (CLSI M27-A2)
# Procedure: as §3
# [18] = test system: Candida guilhermondii USP; assay: MIC/CFM by microdilution (CLSI M27-A2)
# C. Albicans USP 2 = assay: MIC/CFM against Candida sp. strains; conditions: Table 14, C. Albicans USP 2
# Candida glabrata ATCC = assay: MIC/CFM against Candida sp. strains; conditions: Nakaseomyces glabratus; Table 14, Candida glabrata ATCC
# [19] = test system: Candida albicans ATCC 10231; assay: MIC/CFM by microdilution (CLSI M27-A2); conditions: Candida albicans, ATCC10231, read-out: MIC
compound,measurement,setting,value
Nistatina,MIC,"[1]; Table 11, C. Tropicalis USP 1658",6.25 µg/mL
same,MIC,"[1]; Table 12, C. tropicalis USP 1658, 48 h, 35° C.",6.125 µg/mL
same,MIC,"Candida krusei ATCC 6258 [2]; Table 11, C. krusei ATCC 6258",6.25 µg/mL
same,MIC,"Candida krusei ATCC 6258 [2]; Table 12, C. krusei ATCC 6258, 48 h, 35° C.",6.25 µg/mL
same,MIC,"[3]; Table 12, C. parapsilosis ATCC 22019, 48 h, 35° C.",6.25 µg/mL
same,MIC,[4],12.5 µg/mL
same,MIC,[5],3.125 µg/mL
same,MIC,[6],12.5 µg/mL
same,Halo of inhibition,[7],1.6
same,Halo of inhibition,[8],1.1
same,Halo of inhibition,Candida krusei ATCC 6258 [9],1.2
same,Halo of inhibition,[10],0
same,Halo of inhibition,[11],1.5
same,MIC,"[12]; Table 11, C. Albicans USP 1565",6.25 µg/mL
same,MIC,"[12]; Table 12, C. albicans USP 1565, 48 h, 35° C.",6.25 µg/mL
same,MIC,[13],3.125 µg/mL
same,MIC,"[14]; Table 11, C. parapsilosis USP 1933",6.25 µg/mL
same,MIC,"[14]; Table 12, C. parapsilosis USP 1933, 48 h, 35° C.",12.5 µg/mL
same,MIC,"[15]; Table 11, C. Tropicalis USP B3",6.25 µg/mL
same,MIC,"Candida krusei USP 2223; Table 11, C. krusei ATCC 2223",6.25 µg/mL
same,MIC,"Candida krusei USP 2223; Table 12, C. krusei USP 2223, 48 h, 35° C.",6.25 µg/mL
same,MIC,"[16]; Table 12, C. albicans OF M3-20, 48 h, 35° C.",12.5 µg/mL
same,MIC,"[17]; Table 12, C. albicans OF M7-19, 48 h, 35° C.",12.5 µg/mL
same,MIC,"Candida albicans USP 1; Table 12, C. albicans USP 1, 48 h, 35° C.",6.25 µg/mL
same,MIC,"[18]; Table 11, C. guilhermondii USP",3.125 µg/mL
same,MIC,"[18]; Table 12, C. guilhermondii USP, 48 h, 35° C.",6.25 µg/mL
"C[C@@H]1O[C@@H](O[C@@H]2[C@@H](O)[C@H](OCCc3ccc(O)c(O)c3)O[C@H](CO)[C@H]2OC(=O)/C=C/c2ccc(O)c(O)c2)[C@H](O)[C@H](O)[C@H]1O [Fraction P2, verbascoside]",MIC,C. Albicans USP 2,1.5 µg/mL
same,MIC,"[1]; Candida tropicalis, USP1658, Table 12, C. tropicalis USP 1658, 48 h, 35° C., read-out: MIC",1.5 µg/mL
same,MIC,"Candida krusei ATCC 6258 [2]; Pichia kudriavzevii, ATCC6258, Table 12, C. krusei ATCC 6258, 48 h, 35° C., read-out: MIC",0.375 µg/mL
same,MIC,"Candida krusei ATCC 6258 [2]; Pichia kudriavzevii, ATCC6258, Table 14, C. krusei ATCC, read-out: MIC",1.5 µg/mL
same,MIC,"[3]; Lodderomyces parapsilosis, ATCC22019, Table 12, C. parapsilosis ATCC 22019, 48 h, 35° C., read-out: MIC",0.375 µg/mL
same,MIC,"[3]; Lodderomyces parapsilosis, ATCC22019, Table 14, C. parapsilosis ATCC 22019, read-out: MIC",1.5 µg/mL
same,MIC,"[4]; ATCC32903, 168 h, read-out: MIC",12 µg/mL
same,MIC,"[5]; Diaporthe longicolla, 168 h, read-out: MIC",16 µg/mL
same,MIC,"[6]; ATCC9533, 168 h, read-out: MIC",48 µg/mL
same,MIC,Candida glabrata ATCC,0.75 µg/mL
same,MIC,"[12]; Candida albicans, USP1565, Table 12, C. albicans USP 1565, 48 h, 35° C., read-out: MIC",0.375 µg/mL
same,MIC,"[14]; Lodderomyces parapsilosis, USP1933, Table 12, C. parapsilosis USP 1933, 48 h, 35° C., read-out: MIC",0.75 µg/mL
same,MIC,"[14]; Lodderomyces parapsilosis, USP1933, Table 14, C. parapsilosis USP 1933 ATCC, read-out: MIC",1.5 µg/mL
same,MIC,"[15]; Candida tropicalis, USPB3, Table 14, C. Tropicalis UPS B3, read-out: MIC",1.5 µg/mL
same,MIC,"Candida krusei USP 2223; Pichia kudriavzevii, USP2223, Table 12, C. krusei USP 2223, 48 h, 35° C., read-out: MIC",0.75 µg/mL
same,MIC,"Candida krusei USP 2223; Pichia kudriavzevii, USP2223, Table 14, C. krusei USP 2223, read-out: MIC",1.5 µg/mL
same,MIC,"[19]; Table 12, C. albicans ATCC 10231, 48 h, 35° C.",3 µg/mL
same,MIC,"[19]; Table 14, C. Albicans ATCC 10231",1.5 µg/mL
same,MIC,"[16]; Candida albicans, OFM320, Table 12, C. albicans OF M3-20, 48 h, 35° C., read-out: MIC",0.375 µg/mL
same,MIC,"[16]; Candida albicans, OFM320, Table 14, C. Albicans OF M3-20, read-out: MIC",1.5 µg/mL
same,MIC,"[17]; Candida albicans, OFM719, Table 12, C. albicans OF M7-19, 48 h, 35° C., read-out: MIC",0.375 µg/mL
same,MIC,"[17]; Candida albicans, OFM719, Table 14, C. Albicans OF M7-19, read-out: MIC",0.75 µg/mL
same,MIC,"Candida albicans USP 1; Candida albicans, USP1, Table 12, C. albicans USP 1, 48 h, 35° C., read-out: MIC",0.375 µg/mL
same,MIC,"Candida albicans USP 1; Candida albicans, USP1, Table 14, C. Albicans USP 1, read-out: MIC",1.5 µg/mL
same,MIC,"[18]; Candida, Table 12, C. guilhermondii USP, 48 h, 35° C., read-out: MIC",0.375 µg/mL
same,MIC,"[18]; Table 14, Candida guilhermondi USPATCC, read-out: MIC",0.75 µg/mL
